Patent publication US20090076044A1, “VEGFR INHIBITORS CONTAINING A ZINC BINDING MOIETY” (priority 2007, published 2009)

Key:
human c-Kit = biological target: T1, human c-Kit (Homo sapiens, UniProt P10721); assay: c-Kit kinase assay (HTScan Receptor Kinase Assay Kit, DELFIA); format: biochemical; conditions: 200 μM ATP
T1 construct: human c-Kit (Thr544-Val976); purchased Cell Signaling Technologies; host or cells: baculovirus expression system
Procedure: (f) An In Vitro Assay which Determines the Ability of a Test Compound to Inhibit c-Kit Kinase.
The ability of compounds to inhibit c-Kit tyrosine kinase activity was assayed using HTScan™ Receptor Kinase Assay Kits (Cell Signaling Technologies, Danvers, Mass.). c-Kit tyrosine kinase is obtained in partially purified form from GST-kinase fusion protein which is produced using a baculovirus expression system from a construct expressing human c-Kit (Thr544-Val976) with an amino-terminal GST tag. The protein was purified by one-step affinity chromatography using glutathione-agarose. An anti-phosphotyrosine monoclonal antibody, P-Tyr-100, is used to detect phosphorylation of biotinylated substrate peptide KDR (Tyr996). Enzymatic activity was tested in 60 mM HEPES, 5 mM MgCl2 5 mM MnCl2 200 μM ATP, 1.25 mM DTT, 3 μM Na3VO4, 1.5 mM peptide, and 50 ng c-Kit. Bound antibody was detected using the DELFIA system (PerkinElmer, Wellesley, Mass.) consisting of DELFIA® Europium-labeled Anti-mouse IgG (PerkinElmer, #AD0124), DELFIA® Enhancement Solution (PerkinElmer, #1244-105), and a DELFIA® Streptavidin coated, 96-well Plate (PerkinElmer, AAAND-0005). Fluorescence was measured on a WALLAC Victor 2 plate reader and reported as relative fluorescence units (RFU). Data were plotted using GraphPad Prism (v4.0a) and IC50's were calculated using a sigmoidal dose response curve fitting algorithm.
Test compounds were dissolved in dimethylsulphoxide (DMSO) to give a 20 mM working stock concentration. Each assay was set up as follows: 100 μl of 10 mM ATP is added to 1.25 ml 6 mM substrate peptide. The mixture was diluted with dH20 to 2.5 ml to make 2×ATP/substrate cocktail ([ATP]=[…], [substrate]=3 mM). The enzyme was immediately transferred from −80° C. to ice. The enzyme was allowed to thaw on ice. The mixture was microcentrifuged briefly at 4° C. to bring liquid to the bottom of the vial and returned immediately to ice. 10 μl of DTT (1.25 mM) was added to 2.5 ml of 4× HTScan™ Tyrosine Kinase Buffer (240 mM HEPES pH 7.5, 20 mM MgCl2, 20 mM MnCl, 12 mM NaVO3) to make DTT/Kinase buffer. 1.25 ml of DTT/Kinase buffer was transferred to enzyme tube to make a 4× reaction cocktail ([enzyme]=4 ng/μL in 4× reaction cocktail). 12.5 μl of the 4× reaction cocktail was incubated with 12.5 μl/well of prediluted compound of interest (usually around 10 μM) for 5 minutes at room temperature. 25 μl of 2×ATP/substrate cocktail is added to 25 μl/well preincubated reaction cocktail/compound. The reaction plate was incubated at room temperature for 30 minutes. 50 μl/well Stop Buffer (50 mM EDTA, pH 8) was added to stop the reaction. […] 615 nm fluorescence emission is detected using an appropriate Time-Resolved Plate Reader.

human PDGFR-beta = biological target: T2, human PDGFR-beta (Homo sapiens, UniProt P09619); assay: PDGFR-beta radioisotope kinase assay; format: biochemical; conditions: 100 μM ATP; for IC50: read-out: PDGFRb IC50
T2 construct: fragment (amino acids 558-1106) amino-terminally fused to 6-histidine; 6xHis (N); made in house
Procedure: (a) An In Vitro Assay which-Determines the Ability of a Test Compound to Inhibit a Receptor Tyrosine Kinase.
The ability of compounds to inhibit receptor kinase (VEGFR2 and PDGFR-beta) activity was assayed using standard radioisotope assay for kinase. […] The proteins were purified using Ni2+/NTA agarose affinity column to purity
For PDGFR-beta assay, p33 ATP tracers were incubated with purified recombinant PDGFR-beta kinase to monitor the enzyme activity. In this assay, reactions were carried out in the presence of 0.4 mg/ml PDGFR-beta kinase and 200 nM of Abl peptide substrate ([…]). The reaction was carried out at 30° C. for 120 minutes in a final assay condition contained 20 mM Tris-HCl, pH 7.5, 100 mM NaCl, 0.05 mM EDTA, 0.05% NP-40, 1 mM DTT 50% glycerol and 100 μM ATP. An equal volume of 25% TCA was added to stop the reaction and precipitate the labeled peptides. Precipitated proteins were trapped onto glass fiber B filterplates and excess unlabeled p33 ATP was washed off. The plates were allowed to air-dry prior to the addition of 30 uL/well of Packard Microscint 20. The amount of incorporated isotope was measured using a Perkin Elmer TopCount plate reader. Different concentrations of compounds were added to reaction to assess the activity of compounds to inhibit PDGF-beta kinase. IC50 was calculated using Prism software with sigmoidal dose-response curve fitting.

T2 sequence (P09619 558-1106): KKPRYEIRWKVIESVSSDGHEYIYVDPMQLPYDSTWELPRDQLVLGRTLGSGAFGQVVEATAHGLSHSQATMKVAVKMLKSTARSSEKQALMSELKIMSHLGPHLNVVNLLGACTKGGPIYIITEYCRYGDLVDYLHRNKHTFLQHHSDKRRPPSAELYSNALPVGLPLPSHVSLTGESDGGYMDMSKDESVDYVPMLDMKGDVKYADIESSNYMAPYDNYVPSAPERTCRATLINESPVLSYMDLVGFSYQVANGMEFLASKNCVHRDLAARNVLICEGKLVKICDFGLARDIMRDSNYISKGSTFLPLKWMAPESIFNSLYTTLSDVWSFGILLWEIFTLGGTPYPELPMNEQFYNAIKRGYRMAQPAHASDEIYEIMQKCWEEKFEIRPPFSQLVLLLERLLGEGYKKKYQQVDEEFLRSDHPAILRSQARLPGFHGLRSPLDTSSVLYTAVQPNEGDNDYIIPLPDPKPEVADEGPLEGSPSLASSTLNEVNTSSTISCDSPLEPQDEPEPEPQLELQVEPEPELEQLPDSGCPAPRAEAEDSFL
T1 sequence (P10721 544-976): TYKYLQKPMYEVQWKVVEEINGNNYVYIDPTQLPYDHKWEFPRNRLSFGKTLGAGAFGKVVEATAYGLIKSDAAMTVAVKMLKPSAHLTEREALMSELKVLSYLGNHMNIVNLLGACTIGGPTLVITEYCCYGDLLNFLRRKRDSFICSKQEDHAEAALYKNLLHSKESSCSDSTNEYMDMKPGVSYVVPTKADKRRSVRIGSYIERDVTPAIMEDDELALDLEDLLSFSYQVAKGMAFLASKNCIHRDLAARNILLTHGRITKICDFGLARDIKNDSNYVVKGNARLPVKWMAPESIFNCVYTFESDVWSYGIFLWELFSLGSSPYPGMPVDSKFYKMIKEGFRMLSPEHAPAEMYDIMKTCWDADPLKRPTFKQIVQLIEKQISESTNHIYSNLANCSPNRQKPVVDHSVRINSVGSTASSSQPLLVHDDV

| Structure (SMILES) | IC50 (human c-Kit) [µM] | PDGFRb IC50 (human PDGFR-beta) | IC50 (human PDGFR-beta) [µM] |
| --- | --- | --- | --- |
| COc1cc2c(Oc3ccc4[nH]c(C)cc4c3F)ncnc2cc1OCCCCCCC(=O)NO [Compound 11, 7-(4-(4-fluoro-2-methyl-1H-indol-5-yloxy)-6-methoxyquinazolin-7-yloxy)-N-hydroxyheptanamide] | < 0.1 | Inactive |  |
| COc1cc2c(Nc3ccc4[nH]c(C)cc4c3F)ncnc2cc1OCCCCCC(=O)NO [Compound 13, 6-(4-(4-fluoro-2-methyl-1H-indol-5-ylamino)-6-methoxyquinazolin-7-yloxy)-N-hydroxyhexanamide] | 0.1 to 1 |  | 1 to 10 |
| COc1cc2c(Nc3ccc4[nH]c(C)cc4c3F)ncnc2cc1OCCCCCCC(=O)NO [Compound 14, 7-(4-(4-fluoro-2-methyl-1H-indol-5-ylamino)-6-methoxy-quinazolin-7-yloxy)-N-hydroxyheptanamide] | 0.1 to 1 |  | > 10 |
| Cc1cc2c(F)c(Nc3ncnc4cc(OCCCN5CCCC5)c(OCCCCCCC(=O)NO)cc34)ccc2[nH]1 [Compound 20, 7-(4-(4-Fluoro-2-methyl-1H-indol-5-ylamino)-7-(3-(pyrrolidin-1-yl)propoxy)quinazolin-6-yloxy)-N-hydroxyheptanamide] | 0.1 to 1 |  | > 10 |
